According to patent publication US20110275635A1 (priority 2009, published 2011):
Converted amounts (≈) assume the structure as drawn. Counter-ions that a name gives are not always drawn. Like-named read-outs stand apart in the source and are kept apart here.

Columns and labels:
B. anthracis NADs = B. anthracis NADs (Bacillus anthracis, UniProt Q81RP3); assay type: biochemical
[1] = test system: Bacillus anthracis Sterne; assay: microbe, parasite or virus in culture; assay type: cell-based; details: for MIC: Bacillus anthracis
[2] = In vivo toxicity, maximum tolerated dose; details: female, BALB/c, mouse, intraperitoneal

Sequence of B. anthracis NADs (Q81RP3 whole entry, looked up): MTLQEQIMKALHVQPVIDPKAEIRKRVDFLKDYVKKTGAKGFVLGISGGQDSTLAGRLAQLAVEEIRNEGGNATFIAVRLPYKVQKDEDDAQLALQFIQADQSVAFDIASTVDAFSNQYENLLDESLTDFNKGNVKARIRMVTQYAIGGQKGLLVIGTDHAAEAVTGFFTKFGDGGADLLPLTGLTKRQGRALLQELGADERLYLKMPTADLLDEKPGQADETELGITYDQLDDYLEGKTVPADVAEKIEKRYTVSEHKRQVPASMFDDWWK

Row | Structure (SMILES) | IC50 (B. anthracis NADs; read-out: IC50) | IC50 (B. anthracis NADs; read-out: NADs IC50) | MIC ([1]; read-out: B.a. MIC (μM)) | MIC ([1]; 5 h, read-out: MIC100 (μM)) | MTD [2] | activity against B. anthracis (in words) [1]
1 | O=C(NC(=S)Nc1cc(-c2nc3ccccc3[nH]2)ccc1Cl)c1ccccc1[N+](=O)[O-] [Compound 5831] | 243 µM | 243 ± 38 µM | > 240 µM | – | – | –
2 | COc1ccccc1NC(=O)COc1ccc(/C=C(/C#N)c2nc3ccccc3[nH]2)cc1 [Compound 5822] | 107 µM | 178 ± 102 µM | > 240 µM | – | – | –
3 | COc1ccc(CCNC(=O)NCc2cccc(CNC(=O)NCCc3ccc(OC)cc3)c2)cc1 [Compound 5609] | 70 µM | 70 µM | > 204 µM | – | – | –
4 | O=C(Nc1ccc([N+](=O)[O-])cc1)c1ccc(-c2nnc(-c3ccccc3)o2)cc1 [Compound 5605] | 146 µM | 146 ± 0.2 µM | > 259 µM | > 259 µM | – | –
5 | O=C(Nc1ccc(S(=O)(=O)Nc2cccc(C(F)(F)F)c2)cc1)Nc1cccc(Cl)c1 [Compound 5991] | – | – | – | – | 10 mg/kg | –
6 | COc1cccc(NC(=O)Nc2ccc(S(=O)(=O)Nc3ccc(Cl)c(Cl)c3)cc2)c1 [Compound 6325] | – | – | – | – | 50 mg/kg | –
7 | CCc1ccc(S(=O)(=O)Nc2c([N+](=O)[O-])ccc3ccccc23)cc1 [Compound 5599] | – | – | – | 3.75 µM (≈ 1.34 µg/mL) | – | –
8 | COc1cccc(NC(=O)Nc2nnc(COc3ccc([N+](=O)[O-])cc3)s2)c1 [Compound 5807] | 124 µM | 124 ± 5 µM | > 240 µM | – | – | –
9 | Nc1ncnc(Nc2ccc(Cl)cc2C(=O)c2ccccc2Cl)c1[N+](=O)[O-] [Compound 5616] | 208 µM | 231 ± 36 µM | > 247 µM | – | – | –
10 | COc1ccc(Oc2ccc([N+](=O)[O-])cc2C(=O)Nc2ccc(S(N)(=O)=O)cc2)cc1 [Compound 5724] | 291 µM | 291 ± 29 µM | > 240 µM | – | – | –
11 | O=C(Nc1ccc(S(=O)(=O)Nc2ncccn2)cc1)Nc1ccc(Cl)c(Cl)c1 [Compound 5617] | – | – | 15 µM (≈ 6.57 µg/mL) | – | – | good activities
12 | COc1ccc(NC(=O)Nc2ccc(Oc3ncnc4cc(Cl)ccc34)nc2)cc1OC1CCCC1 [Compound 5764] | 97.2 µM | 97 ± 55 µM | > 240 µM | – | – | –
13 | O=C(O)c1cn(C2CC2)c2cc(N3CCNCC3)c(F)cc2c1=O [Cipro, ciprofloxacin hydrochloride, reference compound] | – | – | 0.5 µM | – | – | –
14 | O=[N+]([O-])c1ccc(-c2cnc(N/N=C/c3cccc([N+](=O)[O-])c3)nc2)cc1 [Compound 5591] | 160 µM | 160 ± 57 µM | > 274 µM | – | – | –
15 | O=C(Nc1ccc2oc(-c3cc(Br)ccc3Cl)nc2c1)c1cccc([N+](=O)[O-])c1 [Compound 5798] | 61.8 µM | 61.8 µM | – | > 240 µM | – | –
16 | O=C1C=C(Nc2ccccc2C(=O)O)C(=O)C=C1Nc1ccccc1C(=O)O [Compound 5589] | 137 µM | 118 ± 67 µM | > 264 µM | – | – | –
17 | Cc1c(NC(=O)c2ccc(N3CCCC3)c([N+](=O)[O-])c2)cccc1-c1nc2ccccc2[nH]1 [Compound 5830] | 198 µM | 193 ± 8 µM | > 240 µM | – | – | –
18 | O=C(Nc1ccccc1)Nc1ccc(NC(=O)c2ccc(NC(=O)Nc3ccccc3)cc2)cc1 [Compound 5793] | 78.8 µM | 79 ± 38 µM | > 240 µM | – | – | –
19 | Cc1ccc(C(=O)Nc2cccc(-c3nc4ccccc4[nH]3)c2)cc1 [Compound 5710] | 128 µM | 189 ± 86 µM | > 240 µM | – | – | –
20 | O=C(Nc1ccc(/N=N/c2ccccc2)cc1)c1ccc([N+](=O)[O-])cc1 [Compound 5792] | 76 µM | 76 ± 13 µM | > 240 µM | – | – | –
21 | Cc1cc(-c2nnc(CSc3nnc(NC(=O)c4ccc(F)c(Cl)c4)s3)o2)ccc1[N+](=O)[O-] [Compound 5731] | 271 µM | 270 ± 3 µM | > 240 µM | – | – | –

Row | Structure (SMILES) | IC50 (B. anthracis NADs; read-out: IC50) | IC50 (B. anthracis NADs; read-out: NADs IC50) | MIC ([1]; read-out: B.a. MIC (μM)) | MIC ([1]; 5 h, read-out: MIC100 (μM)) | MTD [2] | activity against B. anthracis (in words) [1]
22 | O=C(Nc1cccc(Oc2ccc3c(c2)C(=O)N(c2ccccc2)C3=O)c1)c1cccc([N+](=O)[O-])c1 [Compound 5799] | 175 µM | 202 ± 38 µM | > 240 µM | – | – | –
23 | CCOC(=O)C1=C(Nc2cccc3ccccc23)S/C(=C\c2ccc([N+](=O)[O-])cc2)C1=O [Compound 5597] | 86.1 µM | 86 ± 33 µM | > 224 µM | – | – | –
24 | O=C(Nc1cccc(C(=O)Nc2cccc3ccccc23)c1)c1cccc([N+](=O)[O-])c1 [Compound 5802] | 225 µM | 225 ± 36 µM | > 240 µM | – | – | –
25 | O=C(Nc1ccc(Cc2ccc(NC(=O)c3ccc4c(c3)OCO4)cc2)cc1)c1ccc2c(c1)OCO2 [Compound 5818] | 65.7 µM | 65.7 µM | – | > 240 µM | – | –
26 | NC(=O)c1ccc(NC(=O)c2ccc(Oc3ccc([N+](=O)[O-])cc3Cl)cc2)cc1 [Compound 5821] | 104 µM | 130 ± 37 µM | > 240 µM | – | – | –
27 | COc1ccc(NC(=O)Nc2cccc(NC(=O)Nc3ccc(OC)cc3)c2F)cc1 [Compound 5707] | 253 µM | 253 ± 65 µM | > 240 µM | – | – | –
28 | O=C(CSc1nc(Nc2ccccc2)nc(N2CCOCC2)n1)Nc1ccc([N+](=O)[O-])cc1O [Compound 5833] | – | – | 15 µM (≈ 7.25 µg/mL) | – | – | good activities
29 | Cc1cc(C)c2oc(-c3cccc(NC(=O)/C=C/c4cccc([N+](=O)[O-])c4)c3)nc2c1 [Compound 5806] | 67.8 µM | 68 ± 5 µM | > 240 µM | – | – | –
30 | O=C(CCC(=O)Nc1ccc(Nc2ccccc2)cc1)Nc1ccc(Nc2ccccc2)cc1 [Compound 5604] | 141 µM | 256 ± 210 µM | > 222 µM | – | – | –
31 | O=C(Nc1cccc(/N=C/c2cc([N+](=O)[O-])ccc2O)c1)c1cccc(Br)c1 [Compound 5684] | 99.5 µM | 99 ± 12 µM | > 227 µM | – | – | –
32 | O=C(COC(=O)c1ccc(NC(=O)c2ccc([N+](=O)[O-])cc2)cc1)c1ccc(F)cc1 [Compound 5606] | 141 µM | 176 ± 49 µM | > 237 µM | – | – | –
33 | Nc1c(C(=O)c2ccc([N+](=O)[O-])cc2)sc(Nc2ccccc2)c1-c1nc2ccccc2[nH]1 [Compound 5768] | 170 µM | 170 ± 48 µM | > 240 µM | – | – | –
34 | O=C(Cn1cc(/C=C/c2[nH]c(=O)[nH]c(=O)c2[N+](=O)[O-])c2ccccc21)Nc1ccc(F)cc1 [Compound 5615] | 55.4 µM | 55.4 µM | – | > 223 µM | – | –
35 | O=[N+]([O-])c1ccc(O)c(/C=N/c2cccc(O)c2)c1 [Compound 5660] | 22.5 µM | 22.5 µM | > 387 µM | – | – | –
36 | O=C(Nc1cccc(/N=C/c2cc([N+](=O)[O-])ccc2O)c1)c1ccc(Cl)cc1Cl [Compound 5691] | 106 µM | 106 ± 2 µM | > 232 µM | – | – | –
37 | COc1ccccc1NC(=O)NC(=O)c1ccc(-c2csnn2)cc1 [Compound 5737] | 235 µM | 235 ± 71 µM | > 240 µM | – | – | –
38 | NC(=O)c1ccc(/N=C/c2cc([N+](=O)[O-])ccc2Cl)cc1 [Compound 5679] | 262 µM | 262 ± 8 µM | > 329 µM | – | – | –
39 | N/C(=N\OC(=O)c1ccc(Cl)c(Cl)c1)c1cccc(CSc2ccccn2)c1 [Compound 5775] | 290 µM | 290 µM | > 240 µM | – | – | –
40 | Cc1onc(-c2ccccc2)c1NC(=O)Nc1ccc(Oc2ncnc3cc(Cl)ccc23)nc1 [Compound 5763] | 232 µM | 232 ± 55 µM | > 240 µM | – | – | –
41 | Cc1ccc(-c2nc3cc(Cl)ccc3o2)cc1CC(=O)c1cc([N+](=O)[O-])c(C)c([N+](=O)[O-])c1 [Compound 5588] | 78.5 µM | 84 ± 35 µM | > 240 µM | > 215 µM | – | –
